{"source": "patent US20130022645A1", "about": "“PHARMACEUTICAL FORMULATIONS OF BISPHOSPHONATE WITH ENHANCED ORAL BIOAVAILABILITY” (DONG-A PHARM. CO., LTD., priority 2011, published 2013)", "key": {"[1]": {"tested_on": "intestinal mucosa", "conditions": "rabbits; cited from earlier work"}, "[2]": {"assay": "In vitro inhibitory activity of phytic acid and EDTA against complexation of bisphosphonate with calcium (residual risedronate in solution by HPLC)", "format": "physicochemical", "conditions": "for Inhibition of calcium-risedronate complexation: Tables 2 to 4, FIGS. 1 to 3", "description": "Herein, in vitro tests in which after bisphosphonate and a chelating agent were simultaneously added to a solution containing a predetermined amount of calcium ions, correlation between time and residual bisphosphonate in the solution was determined were performed as explained in the following Reference Examples.\nVarious 50 mL solutions containing 50 mg, 10 mg and 5 mg of calcium in combination with 50 mg and 100 mg of EDTA, or […] as a chelating agent were prepared and used respectively in Reference Examples 1 to 15.\nThe mechanism in which a chelating agent facilitates the absorption of bisphosphonate can be explained as the degree to which the chelating inhibits bisphosphonate's activity of reacting with minerals (calcium, magnesium, etc.) in the gastrointestinal tract to form insoluble complexes. Thus, in vitro tests for assaying the inhibitory activity of phytic acid or EDTA against the complexation of bisphosphonate in calcium-containing solutions were conducted in Reference Test Example 1.\nIn a container with a cap, 25 mL of each of the solutions prepared in Reference Example 1 to 15 was placed, followed by agitation at 100 rpm for 120 min in an agitation bath maintained at 37° C. Approximately 1 mL of each of the solutions was taken at time points (immediately after preparation, and 15, 30, 60, 90 and 120 min after agitation) and allowed to pass through 0.45 μm PVDF membrane filters to remove precipitates. Residual resedronate in the solutions was quantitatively analyzed by HPLC."}}, "note": "Entries after “also recorded” stand apart in the source; their conditions may differ.", "data": [{"smiles": "O=C(O)CN(CCN(CC(=O)O)CC(=O)O)CC(=O)O", "note": "[EDTA]", "values": [{"measurement": "Effect on intestinal mucosa", "setting": "[1]", "value": "irritate the intestinal mucosa"}, {"measurement": "Inhibition of calcium-risedronate complexation", "setting": "[2]", "value": "inhibit calcium-risedronate complexation in a dose-dependent manner"}]}, {"smiles": "O=P(O)(O)O[C@H]1[C@H](OP(=O)(O)O)[C@@H](OP(=O)(O)O)[C@H](OP(=O)(O)O)[C@@H](OP(=O)(O)O)[C@H]1OP(=O)(O)O", "note": "[phytic acid, inositol hexakisphosphate]", "values": [{"measurement": "Inhibition of calcium-risedronate complexation", "setting": "[2]", "value": "inhibit calcium-risedronate complexation in a dose-dependent manner"}, {"measurement": "Inhibitory activity against complexation compared with EDTA", "setting": "[2]; in vitro tests", "value": "poorer in inhibitory activity against complexation than was EDTA"}, {"measurement": "Amount of phytic acid relative to EDTA needed for the same inhibition of calcium-risedronate complexation", "setting": "[2]; in vitro, Reference Examples 6 to 10", "value": "at least twice the amount of EDTA; also recorded: twice as large as that of EDTA"}]}]}
